Structures are written as SMILES.

These results are taken from patent publication US20240342177A1, “METHODS OF TREATING BRAIN CANCER” (priority 2021, published 2024).

The test system of one data set is RA055 (DMG). Nature of the data set: In vitro efficacy, dose response in DMG neurospheres RA055.
For data set [1] the following is noted: cited from earlier work.
In the next data set the test system is P008480 (Ependymoma). Nature of the data set: In vitro efficacy, dose response in ependymoma culture.
Another data set has as its system P002306 (DMG). Nature of the data set: In vitro efficacy, dose response in DMG neurospheres P002306.
The next data set concerns DIPG-7 (DMG). Nature of the data set: In vitro efficacy, dose response in DMG neurospheres DIPG-7. As to conditions: Homo sapiens.
Data set [2] relates to U-87-MG human glioblastoma cell line. Nature of the data set: U-87-MG cell proliferation (Incucyte confluency). It is filed as cell-based. As to conditions: 72 hours with drug, 5-FU concentration, read-out: IC50, inhibiting cell proliferation. The method, then:
U-87-MG cells are maintained in DMEM (high glucose)+10% FCS
• 96-well 2D format (triplicate wells per drug concentration). • Cells seeded at 10,000 cells/well>24 hours incubation. • Drugs added 24 hours later and cells incubated a further 72 hours. • Cells imaged every 6 hours using Incucyte ZOOM for cell proliferation (confluency measurement) and evidence of cell death.

Another data set relates to P000302 (Healthy cells). Nature of the data set: In vitro dose response in healthy astrocytes (control model system).

Description for DIPG-7 (DMG): (§1) Assessment of in vitro activity of the composition used in the methods of the present disclosure was undertaken in patient-derived Diffuse Midline Glioma (DMG) neurospheres.
(§2) In particular, activity of the composition against human DMG cells was compared to that of 5-FU, a combination of 5-FU and FA, or a media control.
(§3) The composition used in the methods of the present disclosure was tested at a 5-FU to FA (Leucovorin) ratio of 15:1 (termed ‘Deflexifol’), and compared to 5-FU as a single agent (‘5-FU’); FA (Leucovorin) as a single agent (‘Leucovorin’); or a combination of 5-FU and FA (Leucovorin) (‘5-FU+Leucovorin’).
(§4) The tested concentrations were selected with reference to the clinical maximum tolerated plasma concentration of 5-FU (530 μM), as detailed in Table 5.
(§5) Screening was conducted in a 96-well format, with N=4 curves, using: • three different DMG cell lines: P002306, DIPG-7 and RA055 • one ependymoma culture and • one set of healthy astrocytes (control model system).
Description for P000302 (Healthy cells): as §3, §5
Description for P002306 (DMG): as §1, §2, §3, §4, §5
Description for P008480 (Ependymoma): as §3, §5
Description for RA055 (DMG): as §1, §2, §3, §4, §5

For the compound `O=c1[nH]cc(F)c(=O)[nH]1` [5-FU, 5-fluoro-2,4 (1H,3H)-pyrimidinedione], the IC50 was approximately 200 µM with RA055 (DMG) (Homo sapiens); more than 500 µM with P008480 (Ependymoma) (Homo sapiens); approximately 1.9 µM in the data set on P002306 (DMG) (Homo sapiens); approximately 22.3 µM with DIPG-7 (DMG); 120 µM in data set [2]; approximately 500 µM in the data set on P000302 (Healthy cells) (Homo sapiens, Astrocyte). Besides, the “AUC (dose response)” value with RA055 (DMG) (RA055 (DMG)) is listed as “AUC: 332.6”; in the data set with P008480 (Ependymoma) (P008480 (Ependymoma)) it was “AUC: 373.2”; in the data set on P002306 (DMG) (P002306 (DMG)) it was “AUC: 171.4”; with P000302 (Healthy cells) (P000302 (Healthy cells)), “AUC: 294.3”. In data set [1] (human, in vivo), the “clinical maximum tolerated plasma concentration” value was 530 µM. Moreover, in data set [1] (i.v.b.), the “human tolerability of i.v.b. administration” value is on record as “approximately 500 mg/mg^2”.
